Laboratory results as given in ChEMBL document CHEMBL5321293, “Discovery of ERD-3111 as a Potent and Orally Efficacious Estrogen Receptor PROTAC Degrader with Strong Antitumor Activity” (J Med Chem, 2023).
Activity calls are given as the source filed them. No cut-off for these calls is given here.

Legend:
[1] = Clearance in Sprague-Dawley rat at 1 mg/kg, iv and measured upto 24 hrs by LC-MS/MS analysis; settings: in vivo
[2] = AUC in Sprague-Dawley rat at 3 mg/kg, po and measured upto 24 hrs by LC-MS/MS analysis; assay type: ADME, organism-based; parameters: dose 3 mg/kg, time < 24 hrs, route po; settings: Sprague-Dawley, in vivo
[3] = Volume of distribution at steady state in ICR mouse at 1 mg/kg, iv and measured upto 24 hrs by LC-MS/MS analysis; assay type: ADME, organism-based; settings: in vivo, read-out: Vdss
[4] = Clearance in ICR mouse at 1 mg/kg, iv and measured upto 24 hrs by LC-MS/MS analysis; assay type: ADME, organism-based; settings: in vivo
[5] = Half life in ICR mouse at 3 mg/kg, po and measured upto 24 hrs by LC-MS/MS analysis; assay type: ADME, organism-based; settings: in vivo
[6] = Cmax in ICR mouse at 3 mg/kg, po and measured upto 24 hrs by LC-MS/MS analysis; assay type: ADME, organism-based; parameters: dose 3 mg/kg, time < 24 hrs, route po; settings: in vivo
[7] = Cmax in Beagle dog at 1 mg/kg, po and measured upto 24 hrs by LC-MS/MS analysis; assay type: ADME, organism-based, Canis lupus familiaris; parameters: time < 24 hrs, dose 1 mg/kg, route po; settings: in vivo
[8] = AUC in Beagle dog at 1 mg/kg, po and measured upto 24 hrs by LC-MS/MS analysis; assay type: ADME, organism-based, Canis lupus familiaris; parameters: dose 1 mg/kg, time < 24 hrs, route po; settings: in vivo
[9] = Metabolic stability in human liver microsomes assessed as half life at 1 uM and measured upto 60 mins in presence of NADPH by LC-MS/MS analysis; assay type: ADME, Microsome
[10] = Metabolic stability in rat liver microsomes assessed as half life at 1 uM and measured upto 60 mins in presence of NADPH by LC-MS/MS analysis; assay type: ADME, Microsome
Cytochrome P450 2C8 = molecular target: T1, Cytochrome P450 2C8 (Homo sapiens, UniProt P10632); assay: Inhibition of CYP2C8 in human liver microsomes preincubated for 5 mins in presence substrate followed by NADPH addition and measured after 10 mins by LC-MS/MS analysis; assay type: ADME, Microsome
T1 sequence (P10632 whole entry): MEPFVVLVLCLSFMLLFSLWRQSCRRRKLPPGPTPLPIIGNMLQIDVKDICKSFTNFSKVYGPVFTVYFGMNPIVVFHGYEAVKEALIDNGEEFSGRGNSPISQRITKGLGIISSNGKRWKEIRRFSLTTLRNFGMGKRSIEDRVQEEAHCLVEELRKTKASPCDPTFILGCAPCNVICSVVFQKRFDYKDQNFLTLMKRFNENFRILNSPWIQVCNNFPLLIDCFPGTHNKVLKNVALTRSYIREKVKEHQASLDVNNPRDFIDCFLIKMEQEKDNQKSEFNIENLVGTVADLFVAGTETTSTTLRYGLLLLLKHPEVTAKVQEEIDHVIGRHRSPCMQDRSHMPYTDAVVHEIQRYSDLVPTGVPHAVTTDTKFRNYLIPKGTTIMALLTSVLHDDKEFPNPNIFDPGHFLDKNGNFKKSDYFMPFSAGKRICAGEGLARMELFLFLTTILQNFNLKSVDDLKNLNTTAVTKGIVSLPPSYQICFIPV

Cytochrome P450 2C9 = Cytochrome P450 2C9 (Homo sapiens, UniProt P11712); assay: Inhibition of CYP2C9 in human liver microsomes preincubated for 5 mins in presence substrate followed by NADPH addition and measured after 10 mins by LC-MS/MS analysis; assay type: ADME, Microsome
Cytochrome P450 2C19 = Cytochrome P450 2C19 (Homo sapiens, UniProt P33261); assay: Inhibition of CYP2C19 in human liver microsomes preincubated for 5 mins in presence substrate followed by NADPH addition and measured after 10 mins by LC-MS/MS analysis; assay type: ADME, Microsome
Cytochrome P450 2D6 = Cytochrome P450 2D6 (Homo sapiens, UniProt P10635); assay: Inhibition of CYP2D6 in human liver microsomes preincubated for 5 mins in presence substrate followed by NADPH addition and measured after 10 mins by LC-MS/MS analysis; assay type: ADME, Microsome
[11] = Drug concentration in plasma of CB17 SCID mouse xenografted with human MCF7 cells harboring wild type ESR1 at 10 mg/kg, po qd for 3 days and measured after 24 hrs last dose by LC-MS/MS analysis; assay type: ADME, organism-based; settings: time 3 day
[12] = Drug concentration in plasma of CB17 SCID mouse xenografted with human MCF7 cells harboring wild type ESR1 at 30 mg/kg, po qd for 3 days and measured after 6 hrs last dose by LC-MS/MS analysis; assay type: ADME, organism-based; settings: time 3 day
[13] = Drug concentration in tumor of CB17 SCID mouse xenografted with human MCF7 cells harboring wild type ESR1 at 10 mg/kg, po qd for 3 days and measured after 24 hrs last dose by LC-MS/MS analysis; assay type: ADME, organism-based, Neoplasm; settings: time 3 day, read-out: Ct
[14] = Drug concentration in tumor of CB17 SCID mouse xenografted with human MCF7 cells harboring wild type ESR1 at 30 mg/kg, po qd for 3 days and measured after 6 hrs last dose by LC-MS/MS analysis; assay type: ADME, organism-based, Neoplasm; settings: time 3 day, read-out: Ct
[15] = Drug concentration in tumor of CB17 SCID mouse xenografted with human MCF7 cells harboring wild type ESR1 at 30 mg/kg, po qd for 3 days and measured after 24 hrs last dose by LC-MS/MS analysis; assay type: ADME, organism-based, Neoplasm; settings: time 3 day, read-out: Ct
[16] = Drug concentration in tumor of CB17 SCID mouse xenografted with human MCF7 cells harboring wild type ESR1 at 30 mg/kg, po qd for 3 days and measured after 3 hrs last dose by LC-MS/MS analysis; assay type: ADME, organism-based, Neoplasm; settings: time 3 day, read-out: Ct
[17] = Downregulation of ERalpha protein expression in tumor of CB17 SCID mouse xenografted with human MCF7 cells harboring ESR1 Y537S mutant at 10 mg/kg, po qd for 3 days and measured after 6 hrs last dose by Western blot analysis relative to control; assay type: functional; settings: time 3 day
[18] = Drug concentration in plasma of CB17 SCID mouse xenografted with human MCF7 cells harboring ESR1 Y537S mutant at 10 mg/kg, po qd for 3 days and measured after 6 hrs last dose by LC-MS/MS analysis; assay type: ADME, organism-based; settings: time 3 day
[19] = Drug concentration in tumor of CB17 SCID mouse xenografted with human MCF7 cells harboring ESR1 Y537S mutant at 10 mg/kg, po qd for 3 days and measured after 6 hrs last dose by LC-MS/MS analysis; assay type: ADME, organism-based, Neoplasm; settings: time 3 day, read-out: Ct
MCF7 [20] = assay: Antitumor activity against human MCF7 cells harboring wild type ESR1 xenografted in CB17 SCID mouse assessed as tumor growth inhibition at 30 mg/kg, po qd for 5 weeks and measured 3 weeks post last dose; assay type: functional; settings: MCF7, 840 h, read-out: TGI
MCF7 [21] = assay: Antitumor activity against human MCF7 cells harboring ESR1 D538G mutant xenografted in CB17 SCID mouse assessed as tumor growth inhibition at 10 mg/kg, po qd for 4 weeks; assay type: functional; settings: MCF7, 672 h, read-out: TGI
MCF7 [22] = assay: Antitumor activity against human MCF7 cells harboring ESR1 D538G mutant xenografted in CB17 SCID mouse assessed as tumor growth inhibition at 10 mg/kg, po qd for 4 weeks and measured 1 week post last dose; assay type: functional, organism-based
MCF7 [23] = assay: Antitumor activity against human MCF7 cells harboring ESR1 D538G mutant xenografted in CB17 SCID mouse assessed as tumor growth inhibition at 30 mg/kg, po qd for 4 weeks and measured 1 week post last dose; assay type: functional, organism-based
[24] = Toxicity in CB17 SCID mouse xenografted with human MCF7 cells harboring wild type ESR1 assessed as body weight change at 30 mg/kg,po qd for 5 weeks; assay type: organism-based; settings: in vivo, 840 h
in vivo = settings: Sprague-Dawley, rat, po, 3 mg/kg

Sequence of Cytochrome P450 2C19 (P33261 whole entry): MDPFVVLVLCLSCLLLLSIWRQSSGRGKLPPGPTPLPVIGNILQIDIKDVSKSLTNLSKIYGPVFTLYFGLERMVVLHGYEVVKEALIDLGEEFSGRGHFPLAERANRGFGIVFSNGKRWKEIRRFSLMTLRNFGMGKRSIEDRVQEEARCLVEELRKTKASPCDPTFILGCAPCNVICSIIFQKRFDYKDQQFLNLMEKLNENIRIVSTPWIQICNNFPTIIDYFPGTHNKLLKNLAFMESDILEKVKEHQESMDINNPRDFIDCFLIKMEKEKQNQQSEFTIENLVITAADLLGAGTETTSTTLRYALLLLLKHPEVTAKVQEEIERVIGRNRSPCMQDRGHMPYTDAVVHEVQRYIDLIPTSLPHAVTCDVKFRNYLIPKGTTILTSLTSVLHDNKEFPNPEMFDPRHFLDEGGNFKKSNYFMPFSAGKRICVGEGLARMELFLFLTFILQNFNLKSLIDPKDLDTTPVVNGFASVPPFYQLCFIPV
Sequence of Cytochrome P450 2D6 (P10635 whole entry): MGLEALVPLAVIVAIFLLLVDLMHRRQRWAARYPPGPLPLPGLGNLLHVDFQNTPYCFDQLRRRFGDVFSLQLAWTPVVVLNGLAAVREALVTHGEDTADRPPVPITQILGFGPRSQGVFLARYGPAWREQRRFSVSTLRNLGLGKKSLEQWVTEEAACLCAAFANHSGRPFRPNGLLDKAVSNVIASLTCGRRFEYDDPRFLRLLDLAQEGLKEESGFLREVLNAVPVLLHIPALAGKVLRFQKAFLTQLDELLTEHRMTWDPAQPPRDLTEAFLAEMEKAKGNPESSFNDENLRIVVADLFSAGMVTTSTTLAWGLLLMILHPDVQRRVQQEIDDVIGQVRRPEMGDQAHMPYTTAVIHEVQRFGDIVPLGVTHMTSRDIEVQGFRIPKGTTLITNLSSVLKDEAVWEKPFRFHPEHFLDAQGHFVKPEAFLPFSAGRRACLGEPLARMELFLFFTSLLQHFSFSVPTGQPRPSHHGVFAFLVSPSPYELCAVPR
Sequence of Cytochrome P450 2C9 (P11712 whole entry): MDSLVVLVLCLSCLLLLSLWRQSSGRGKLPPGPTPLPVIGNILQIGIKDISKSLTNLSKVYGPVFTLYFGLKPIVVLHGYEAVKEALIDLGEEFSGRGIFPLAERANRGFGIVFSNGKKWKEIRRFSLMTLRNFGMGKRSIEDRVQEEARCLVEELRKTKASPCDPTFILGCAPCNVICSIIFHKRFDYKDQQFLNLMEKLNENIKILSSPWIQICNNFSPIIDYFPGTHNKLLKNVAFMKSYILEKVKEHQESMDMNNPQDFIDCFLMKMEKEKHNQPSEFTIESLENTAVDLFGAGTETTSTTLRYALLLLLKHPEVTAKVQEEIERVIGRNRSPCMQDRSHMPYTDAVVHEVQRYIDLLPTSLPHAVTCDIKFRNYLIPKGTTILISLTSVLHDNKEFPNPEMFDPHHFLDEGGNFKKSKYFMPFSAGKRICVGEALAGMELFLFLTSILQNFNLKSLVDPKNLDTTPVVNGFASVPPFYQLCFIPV

- clearance at 24 h [1]: 7.4 mL/min/kg
- AUC at 24 h [2]: 1320 ng·h/mL
- Vd [3]: 3.2 L/kg
- clearance [4]: 5.7 mL/min/kg
- half-life [5]: 384 min
- Cmax [6]: 260 ng/mL
- Cmax [7]: 87 ng/mL
- AUC at 24 h [8]: 937 ng·h/mL
- half-life at 1 µM [9]: > 60 min
- half-life at 1 µM [10]: > 60 min
- IC50 (Cytochrome P450 2C8): > 10 µM
- IC50 (Cytochrome P450 2C9): > 10 µM
- IC50 (Cytochrome P450 2C19): > 10 µM
- IC50 (Cytochrome P450 2D6): > 10 µM
- concentration at 72 h [11]: 18 ng/mL
- concentration at 72 h [12]: 1440 ng/mL
- concentration at 72 h [13]: 162 ng/mL
- concentration at 72 h [14]: 1470 ng/mL
- concentration at 72 h [15]: 413 ng/mL
- concentration at 72 h [16]: 1410 ng/mL
- concentration at 72 h [18]: 502 ng/mL
- concentration at 72 h [19]: 692 ng/mL
- bioavailability at 24 h (in vivo): 20%
Compound: C[C@@H]1Cc2c(ccc3[nH]ncc23)[C@@H](c2c(F)cc(N3CCC4(CCN(C(=O)CN5Cc6cc7c(cc6C5)C(=O)N(C5CCC(=O)NC5=O)C7=O)CC4)CC3)cc2F)N1CC(F)F (some centres undefined)
- Activity [17]: 70%
- inhibition in vivo at 30 mg/kg (MCF7 [20]): 42%
- inhibition in vivo at 10 mg/kg (MCF7 [21]): 38%
- Activity (MCF7 [22]): Active
- Activity (MCF7 [23]): Active
- Activity [24]: Non-Toxic
